According to paper PMC4777480, “Trichoderma harzianum Produces a New Thermally Stable Acid Phosphatase, with Potential for Biotechnological Application” (PLoS ONE, 2016):

How the values were obtained:
[1] = target: T1, ACPase II (Trichoderma harzianum, UniProt A0A2T3ZY58); conditions: 5000 µM; 5 mM inorganic phosphate, 60°C; Table 3 gives residual activity instead
T1 construct: gene M431DRAFT_96728
T1 sequence (A0A2T3ZY58 21-556): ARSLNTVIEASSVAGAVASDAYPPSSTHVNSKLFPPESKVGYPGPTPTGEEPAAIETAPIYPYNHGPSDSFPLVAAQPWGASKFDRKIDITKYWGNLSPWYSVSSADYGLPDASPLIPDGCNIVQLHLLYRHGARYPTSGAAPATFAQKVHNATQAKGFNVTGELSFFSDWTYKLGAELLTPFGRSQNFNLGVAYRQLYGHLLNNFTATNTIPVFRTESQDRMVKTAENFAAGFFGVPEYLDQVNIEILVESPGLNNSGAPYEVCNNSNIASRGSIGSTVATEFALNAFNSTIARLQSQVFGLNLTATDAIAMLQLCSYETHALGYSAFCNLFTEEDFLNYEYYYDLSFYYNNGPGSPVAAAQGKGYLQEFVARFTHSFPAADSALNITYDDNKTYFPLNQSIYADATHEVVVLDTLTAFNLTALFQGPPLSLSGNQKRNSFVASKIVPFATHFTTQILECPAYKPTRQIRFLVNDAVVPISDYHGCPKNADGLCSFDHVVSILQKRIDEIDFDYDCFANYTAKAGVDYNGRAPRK

[2] = target: the molecule itself; test: SEC + other: dynamic light scattering; data not shown; ACPase II in solution, eluted in the void volume; hydrodynamic radius 14.3 nm, mass 326 kDa; conditions of the light scattering not told

Molecule: O=P(O)(O)O [sodium phosphate]
- ACPase II [1]: 65.0 ± 2.0%

B1: ACPase II (acid phosphatase II) from Trichoderma harzianum (enzyme)
chain: ARSLNTVIEASSVAGAVASDAYPPSSTHVNSKLFPPESKVGYPGPTPTGEEPAAIETAPIYPYNHGPSDSFPLVAAQPWGASKFDRKIDITKYWGNLSPWYSVSSADYGLPDASPLIPDGCNIVQLHLLYRHGARYPTSGAAPATFAQKVHNATQAKGFNVTGELSFFSDWTYKLGAELLTPFGRSQNFNLGVAYRQLYGHLLNNFTATNTIPVFRTESQDRMVKTAENFAAGFFGVPEYLDQVNIEILVESPGLNNSGAPYEVCNNSNIASRGSIGSTVATEFALNAFNSTIARLQSQVFGLNLTATDAIAMLQLCSYETHALGYSAFCNLFTEEDFLNYEYYYDLSFYYNNGPGSPVAAAQGKGYLQEFVARFTHSFPAADSALNITYDDNKTYFPLNQSIYADATHEVVVLDTLTAFNLTALFQGPPLSLSGNQKRNSFVASKIVPFATHFTTQILECPAYKPTRQIRFLVNDAVVPISDYHGCPKNADGLCSFDHVVSILQKRIDEIDFDYDCFANYTAKAGVDYNGRAPRK
modifications: glycoprotein, approximately 30% carbohydrate (N- and O-glycosylation)
- stoichiometry N [2]: 4
